Data on nine molecules can be found in US20260014146A1, “CDK2 INHIBITORS AND METHODS OF USING THE SAME” (Cedilla Therapeutics, Inc., priority 2022, published 2026).

In assay [1] the target is CDK2/Cyclin E1 (Homo sapiens (Human), UniProt P24941). Nature of the assay: ADP-Glo Luminescent Kinase Assay, ADPGLO (CDK2/E1-37C). In kind it is biochemical. The settings on record: 0.18 nM CDK2/Cyclin E1, 100 μM ATP, 1.5 μM Histone H1, 37° C.; read-out: Pharmaron ADPGLO (CDK2/E1-37C): IC50. The procedure: Inhibition of CDK2/Cyclin E1 activity by the presence of small molecules was evaluated using ADP-Glo Luminescent Kinase Assay (Promega). Activated CDK2/Cyclin E1 was incubated with its substrate Histone H1 (SignalChem H10-54N) in the kinase reaction buffer (100 μM ATP, 50 mM HEPES pH 7.5, 10 mM MgCl2, 1 mM EDTA, 2 mM DTT, 0.01% Brij35, 0.5 mg/mL BSA). Luminescence was recorded with an Envision plate reader (PerkinElmer).
Dose titrations of inhibitors in 100% DMSO were combined with 0.36 nM CDK2/Cyclin E1 in reaction buffer. The mixtures were incubated for 60 minutes at 37° C. before the addition of ATP and Histone H1 substrate to initiate the kinase reaction. The final conditions were 0.18 nM CDK2/Cyclin E1, 100 μM ATP, and 1.5 μM Histone H1. The reactions were incubated at 37° C. for 90 minutes before being stopped with the addition of ADP-Glo reagent. This mixture was incubated at room temperature for 60 minutes before Kinase Detection Solution is added to generate luminescence. The stopped reactions were analyzed on an Envision plate reader. The conversion ratios were normalized to yield % activity, plotted against compound concentration, and fit to a four-parameter equation to determine the IC50 for each compound.
Background: In ADP-Glo the light output rises with the ADP produced.

The test system of assay [2] is Kuramochi cells labeled with mApple-H2B. Nature of the assay: IncuCyte cell proliferation assay. In kind it is cell-based. The settings on record: Kuramochi RB-WT, cell count 0 to 72 hours; method calls it GI50. The method, boiled down:
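mApple-H2B-labelled Kuramochi cells were treated with compound (10-point, half-log dilutions, 20 μM top) and fluorescent nuclei counted by imaging at 0 and 72 h. Fold change in count was normalized to DMSO wells and fitted to dose-response curves to give GI50.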

A value given as a limit tells only on which side of the number the result lay.

For `C[C@@H](OCC12CCC(CC1)OC2)[C@H](NC(=O)[C@@H]1CN(c2cccc3nc(O)cnc23)CC12CN(C(=O)C1(C(F)(F)F)CC1)C2)C(=O)N1CCC(c2nccs2)CC1` [Compound I-45, (S)-N-((2S,3R)-3-((2-oxabicyclo[2.2.2]octan-4-yl)methoxy)-1-oxo-1-(4-(thiazol-2-yl)piperidin-1-yl)butan-2-yl)-6-(2-hydroxyquinoxalin-5-yl)-2-(1-(trifluoromethyl)cyclopropane-1-carbonyl)-2,6-diazaspiro[3.4]octane-8-carboxamide], the IC50 in assay [1] was over 10 µM; in assay [2], over 20 µM.

With `C[C@@H](OCC12CCC(CC1)OC2)[C@H](NC(=O)[C@@H]1CN(c2cc(F)cc3ncsc23)CC12CN(C(=O)C1(C(F)(F)F)CC1)C2)C(=O)N1CCC2(CC1)COC2` [Compound I-46, (S)-N-((2S,3R)-3-(2-oxabicyclo[2.2.2]octan-4-ylmethoxy)-1-oxo-1-(2-oxa-7-azaspiro[3.5]nonan-7-yl)butan-2-yl)-6-(5-fluorobenzo[d]thiazol-7-yl)-2-(1-(trifluoromethyl)cyclopropanecarbonyl)-2,6-diazaspiro[3.4]octane-8-carboxamide], the values for the IC50 in assay [1] and in assay [2] were over 10 µM and over 20 µM, respectively.

Take `C[C@@H](OCC12CCC(CC1)OC2)[C@@H](COC1CCC(c2ccc(C(=O)O)cc2)CC1)NC(=O)[C@@H]1CN(c2cc(F)cc3ncsc23)CC12CN(C(=O)C1(C(F)(F)F)CC1)C2` (stereo partly drawn) [Compound I-47, 4-(4-((2R,3R)-3-((2-oxabicyclo[2.2.2]octan-4-yl)methoxy)-2-((S)-6-(5-fluorobenzo[d]thiazol-7-yl)-2-(1-(trifluoromethyl)cyclopropane-1-carbonyl)-2,6-diazaspiro[3.4]octane-8-carboxamido)butoxy)cyclohexyl)benzoic acid]: the IC50 in assay [1] is over 10 µM; in assay [2] it was 5 to 20 µM.

Take `C[C@@H](OCC12CCC(CC1)OC2)[C@H](NC(=O)[C@@H]1CN(c2cc(F)cc3ncsc23)CC12CN(C(=O)C1(C(F)(F)F)CC1)C2)C(=O)N1CCC(c2nccs2)CC1` [Compound I-48, (S)-N-((2S,3R)-3-((2-oxabicyclo[2.2.2]octan-4-yl)methoxy)-1-oxo-1-(4-(thiazol-2-yl)piperidin-1-yl)butan-2-yl)-6-(5-fluorobenzo[d]thiazol-7-yl)-2-(1-(trifluoromethyl)cyclopropane-1-carbonyl)-2,6-diazaspiro[3.4]octane-8-carboxamide]: the IC50 in assay [1] and in assay [2] was 0.5 to 5 µM each time.

On to `C[C@@H](OCC12CCC(CC1)OC2)[C@@H](COc1ccccc1C(=O)O)NC(=O)[C@@H]1CN(c2cc(F)cc3ncsc23)CC12CN(C(=O)C1(C(F)(F)F)CC1)C2` [Compound I-49, 2-((2R,3R)-3-((2-oxabicyclo[2.2.2]octan-4-yl)methoxy)-2-((S)-6-(5-fluorobenzo[d]thiazol-7-yl)-2-(1-(trifluoromethyl)cyclopropane-1-carbonyl)-2,6-diazaspiro[3.4]octane-8-carboxamido)butoxy)benzoic acid], for which the IC50 in assay [1] was over 10 µM; in assay [2], over 20 µM.

Regarding `COc1ccc(S(=O)(=O)NC(=O)[C@@H](NC(=O)[C@@H]2CN(c3cc(F)cc4ncsc34)CC23CN(C(=O)C2(C(F)(F)F)CC2)C3)[C@@H](C)OCC23CCC(CC2)OC3)cc1` [Compound I-50, (S)-N-((2S,3R)-3-((2-oxabicyclo[2.2.2]octan-4-yl)methoxy)-1-((4-methoxyphenyl)sulfonamido)-1-oxobutan-2-yl)-6-(5-fluorobenzo[d]thiazol-7-yl)-2-(1-(trifluoromethyl)cyclopropane-1-carbonyl)-2,6-diazaspiro[3.4]octane-8-carboxamide], the IC50 in assay [1] is 5 to 10 µM; in assay [2], over 20 µM.

Turning to `C[C@@H](OCC12CCC(CC1)OC2)[C@H](NC(=O)[C@@H]1CN(c2cc(F)cc3ncsc23)CC12CN(C(=O)C1(C(F)(F)F)CC1)C2)C(=O)NS(=O)(=O)c1ccc(F)cc1F` [Compound I-51, (S)-N-((2S,3R)-3-(2-oxabicyclo[2.2.2]octan-4-ylmethoxy)-1-(2,4-difluorophenylsulfonamido)-1-oxobutan-2-yl)-6-(5-fluorobenzo[d]thiazol-7-yl)-2-(1-(trifluoromethyl)cyclopropanecarbonyl)-2,6-diazaspiro[3.4]octane-8-carboxamide], the IC50 in assay [1] is 5 to 10 µM; in assay [2], over 20 µM.

Consider `C[C@@H](OCC12CCC(CC1)OC2)[C@H](NC(=O)[C@@H]1CN(c2cc(F)cc3ncoc23)CC12CN(C(=O)C1(C(F)(F)F)CC1)C2)C(=O)N1CCC(c2nccs2)CC1` [Compound I-52, (S)-N-((2S,3R)-3-((2-oxabicyclo[2.2.2]octan-4-yl)methoxy)-1-oxo-1-(4-(thiazol-2-yl)piperidin-1-yl)butan-2-yl)-6-(5-fluorobenzo[d]oxazol-7-yl)-2-(1-(trifluoromethyl)cyclopropane-1-carbonyl)-2,6-diazaspiro[3.4]octane-8-carboxamide], for which the results for the IC50 in assay [1] and in assay [2] were 5 to 10 µM and 5 to 20 µM, respectively.

Consider `C[C@@H](OCC12CCC(CC1)OC2)[C@@H](COC1CCC(c2ccccc2C(=O)O)CC1)NC(=O)[C@@H]1CN(c2cc(F)cc3ncsc23)CC12CN(C(=O)C1(C(F)(F)F)CC1)C2` (stereo partly drawn) [Compound I-53, 2-(4-((2R,3R)-3-(2-oxabicyclo[2.2.2]octan-4-ylmethoxy)-2-((S)-6-(5-fluorobenzo[d]thiazol-7-yl)-2-(1-(trifluoromethyl)cyclopropanecarbonyl)-2,6-diazaspiro[3.4]octane-8-carboxamido)butoxy)cyclohexyl)benzoic acid], for which the IC50 in assay [1] is over 10 µM; in assay [2], over 20 µM.
